Drawing on patent publication US9796733B2, “Imidazo-pyrazine derivatives useful as soluble guanylate cyclase activators” (Merck Sharp & Dohme Corp., priority 2014, dated 2017), this text covers Emax and EC50 for nine compounds.

The test has as its target T1, sGC α1/β1 heterodimer (Homo sapiens, UniProt Q02108+Q02153).
T1 construct: expressed in transfected cells; host or cells: CHO-K1 (clone #7, CHO-K1/sGC)
T1 sequence (Q02108 1-690): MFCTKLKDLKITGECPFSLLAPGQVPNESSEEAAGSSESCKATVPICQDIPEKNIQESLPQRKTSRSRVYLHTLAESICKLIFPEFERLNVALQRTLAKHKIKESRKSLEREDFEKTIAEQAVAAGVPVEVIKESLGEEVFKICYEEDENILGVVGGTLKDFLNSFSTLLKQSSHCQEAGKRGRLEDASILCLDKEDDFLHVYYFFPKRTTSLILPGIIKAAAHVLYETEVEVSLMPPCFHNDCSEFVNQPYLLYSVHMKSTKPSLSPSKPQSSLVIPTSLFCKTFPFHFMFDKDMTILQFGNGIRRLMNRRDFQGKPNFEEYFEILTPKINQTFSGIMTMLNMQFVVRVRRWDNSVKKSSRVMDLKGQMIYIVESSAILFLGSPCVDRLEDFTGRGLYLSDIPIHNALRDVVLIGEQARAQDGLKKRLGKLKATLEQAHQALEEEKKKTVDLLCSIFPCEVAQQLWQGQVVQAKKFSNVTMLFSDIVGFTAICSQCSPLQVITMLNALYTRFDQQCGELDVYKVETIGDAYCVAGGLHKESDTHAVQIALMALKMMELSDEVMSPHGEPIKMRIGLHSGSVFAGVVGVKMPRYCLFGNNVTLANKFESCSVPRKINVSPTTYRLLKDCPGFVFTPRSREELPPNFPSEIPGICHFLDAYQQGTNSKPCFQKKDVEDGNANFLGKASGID
T1 sequence (Q02153 1-619): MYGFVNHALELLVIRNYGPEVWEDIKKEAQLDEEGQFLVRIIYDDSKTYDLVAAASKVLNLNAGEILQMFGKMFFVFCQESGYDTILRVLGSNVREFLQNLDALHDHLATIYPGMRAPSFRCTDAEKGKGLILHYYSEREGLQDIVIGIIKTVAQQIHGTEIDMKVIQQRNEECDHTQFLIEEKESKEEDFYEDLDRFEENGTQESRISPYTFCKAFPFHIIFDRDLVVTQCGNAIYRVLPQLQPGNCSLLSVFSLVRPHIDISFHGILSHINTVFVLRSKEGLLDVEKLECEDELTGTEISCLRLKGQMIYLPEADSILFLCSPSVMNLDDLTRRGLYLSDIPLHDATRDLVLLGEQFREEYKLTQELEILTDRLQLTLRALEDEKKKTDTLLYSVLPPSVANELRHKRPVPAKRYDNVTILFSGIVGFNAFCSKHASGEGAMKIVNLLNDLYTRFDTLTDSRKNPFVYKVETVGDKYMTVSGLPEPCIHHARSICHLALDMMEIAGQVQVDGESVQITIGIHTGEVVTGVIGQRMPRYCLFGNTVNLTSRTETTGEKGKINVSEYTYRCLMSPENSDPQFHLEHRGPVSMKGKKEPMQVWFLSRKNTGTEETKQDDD
The test is described as follows: Cell-based sGC functional assay (CASA assay): cGMP generation in CHO-K1/sGC cells, HTRF detection. Particulars: for Emax: CHO-K1, percent activation relative to standard Compound A in CHO-K1/sGC cells, read-out: % Act.; for EC50: inflection point (IP) of cGMP generation in CHO-K1/sGC cells, 4P fit, activity expressed as percentage of Compound A. A digest of the protocol:
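cGMP was quantified by HTRF after 1 hr, 37° C exposure of thawed CHO-K1 cells expressing sGC α1/β1 to compound, with or without 1 μM DETA-NO. IBMX (0.5 mM) blocked cGMP breakdown, and DMSO was 2.5% final. Percent of standard Compound A's maximal cGMP was fitted (4P) for inflection point.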

On to `CC1(c2ccc(F)cc2)C(=O)Nc2nc(-c3cn4c(C#N)cnc4c(CCC(F)(F)C(F)(F)F)n3)nc(N)c21` (stereo not drawn) [Example 273A, 6-(4-Amino-5-(4-fluorophenyl)-5-methyl-6-oxo-6,7-dihydro-5H-pyrrolo[2,3-d]pyrimidin-2-yl)-8-(3,3,4,4,4-pentafluorobutyl)imidazo[1,2-3a]pyrazine-3-carbonitrile], for which the Emax came to 81% and the EC50 was 61 nM.
Turning to `Cc1nc2c(CCC(F)(F)C(F)(F)F)nc(-c3nc(N)c4c(n3)NC(=O)C4(C)c3ccc(F)cc3)cn2c1C#N` (stereo not drawn) [Example 274A, 6-(4-amino-5-(4-fluorophenyl)-5-methyl-6-oxo-6,7-dihydro-5H-pyrrolo[2,3-d]pyrimidin-2-yl)-2-methyl-8-(3,3,4,4,4-pentafluorobutyl)imidazo[1,2-a]pyrazine-3-carbonitrile], the Emax came out at 100% and the 50% effective concentration (EC50) was 238 nM.
For `CC1(c2ccc(F)cc2)C(=O)Nc2nc(-c3cn4cc(C#N)nc4c(CCC(F)(F)C(F)(F)F)n3)nc(N)c21` (stereo not drawn) [Example 275A, 6-(4-Amino-5-(4-fluorophenyl)-5-methyl-6-oxo-6,7-dihydro-5H-pyrrolo[2,3-d]pyrimidin-2-yl)-8-(3,3,4,4,4-pentafluorobutyl)imidazo[1,2-a]pyrazine-2-carbonitrile], the Emax was found to be 98% and the response was half-maximal at 89 nM (EC50).
For `CCC1(c2ccc(F)cc2)C(=O)Nc2nc(-c3cn4c(F)cnc4c(CCC(F)(F)C(F)(F)F)n3)nc(N)c21` (stereo not drawn) [Example 276A, 4-Amino-5-ethyl-2-(3-fluoro-8-(3,3,4,4,4-pentafluorobutyl)imidazo[1,2-a]pyrazin-6-yl)-5-(4-fluorophenyl)-5H-pyrrolo[2,3-d]pyrimidin-6(7H)-one] the same measures were 80% and 22 nM.
Turning to `CC1(c2ccc(Cl)cc2)C(=O)Nc2nc(-c3cn4ccnc4cn3)nc(N3CCC(C(F)(F)F)CC3)c21` (stereo not drawn) [Example 280A, 5-(4-chlorophenyl)-2-(imidazo[1,2-a]pyrazin-6-yl)-5-methyl-4-(4-(trifluromethyl)piperdin-1-yl)-5H-pyrrolo[2,3-d]pyrimidin-6(7H)-one], the Emax stood at 102% and the EC50 was determined as 124 nM.
Consider `CC1(c2ccc(Cl)cc2)C(=O)Nc2nc(-c3cn4ccnc4cn3)nc(N3CC(F)(C4CC4)C3)c21` (stereo not drawn) [Example 281A, 5-(4-chlorophenyl)-4-(3-cyclopropyl-3-fluoroazetidin-1-yl)-2-(imidazo[1,2-a]pyrazin-6-yl)-5-methyl-5H-pyrrolo[2,3-d]pyrimidin-6(7H)-one], for which the Emax is 120% and the EC50 amounted to 102 nM.
In the case of `CC1(c2ccc(Cl)cc2)C(=O)Nc2nc(-c3cn4ccnc4cn3)nc(N3CC(C(F)(F)F)C3)c21` (stereo not drawn) [Example 282A, 5-(4-chlorophenyl)-2-(imidazo[1,2-a]pyrazin-6-yl)-5-methyl-4-(3-(trifluromethyl)azetidin-1-yl)-5H-pyrrolo[2,3-d]pyrimidin-6(7H)-one], the Emax came to 153% and the EC50 was found to be 197 nM.
As to `CC1(c2ccc(Cl)cc2)C(=O)Nc2nc(-c3cn4ccnc4cn3)nc(NCC3CC3)c21` (stereo not drawn) [Example 283A, 5-(4-chlorophenyl)-4-((cyclopropylmethyl)amino)-2-(imidazo[1,2-a]pyrazin-6-yl)-5-methyl-5H-pyrrolo[2,3-d]pyrimidin-6(7H)-one], the Emax is 163% and the EC50 came out at 56 nM.
On the same counts, the results for `CC1(F)CN(c2nc(-c3cn4ccnc4cn3)nc3c2C(C)(c2ccc(Cl)cc2)C(=O)N3)C1` (stereo not drawn) [Example 284A, 5-(4-chlorophenyl)-4-(3-fluoro-3-methylazetidin-1-yl)-2-(imidazo[1,2-a]pyrazin-6-yl)-5-methyl-5H-pyrrolo[2,3-d]pyrimidin-6(7H)-one] are 120% and 102 nM.
